Reference: ChEMBL document CHEMBL1133413, “Selection of a potent inhibitor of trihydroxynaphthalene reductase by sorting disease control data” (Bioorg Med Chem Lett, 2000)

Biological target: T1, Scytalone dehydratase (Magnaporthe oryzae (strain 70-15 / FGSC 8958) (Rice blast fungus)(Pyricularia oryzae), UniProt P56221)
T1 sequence (P56221 whole entry): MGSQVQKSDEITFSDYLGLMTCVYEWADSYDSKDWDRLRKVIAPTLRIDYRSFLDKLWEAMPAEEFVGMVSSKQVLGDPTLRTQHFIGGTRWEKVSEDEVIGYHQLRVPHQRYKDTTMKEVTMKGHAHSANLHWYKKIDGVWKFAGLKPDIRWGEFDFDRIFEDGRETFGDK
Test: Compound was evaluated for its inhibition constant against scytalone dehydratase (SD)
Set-up: species or system Pyricularia grisea

## O=C(/C=C/c1ccccc1)NC(=S)Nc1ccc(S(=O)(=O)Nc2cc(F)ccc2F)cc1
  Ki: 6.4 nM
